Results reported in US20220062240A1, “METHODS OF TREATING CANCER USING A CLK INHIBITOR” (BioSplice Therapeutics, Inc., priority 2018, published 2022).
Where two headings read alike, the source gives them in different places.

How the values were obtained:
CLK2 = biological target: T1, CLK2 (Homo sapiens, UniProt P49760); test: CLK2 kinase activity assay (Z-lyte, Ser/Thr 6 peptide); assay type: biochemical; conditions: recombinant CLK2 kinase, ATP 60 μM; read-out: EC50
T1 construct: purchased Thermo Fisher (Life Technologies), Z'-LYTE Kinase Assay Kits
Experimental: All reactions were performed in duplicate.

BT-549 = test: CellTiter-Glo Viability Assay, breast cancer; assay type: cell-based; conditions: Homo sapiens, 96 h; BT-549, breast cancer, four days; read-out: EC50
CAMA1 = test: CellTiter-Glo Viability Assay, breast cancer; assay type: cell-based; conditions: Homo sapiens, CAMA-1, 96 h; CAMA1, breast cancer, four days; read-out: EC50
DU4475 = test: CellTiter-Glo Viability Assay, breast cancer; assay type: cell-based; conditions: Homo sapiens, DU-4475, 96 h; DU4475, breast cancer, four days; read-out: EC50
HCC1599 = test: CellTiter-Glo Viability Assay, breast cancer; assay type: cell-based; conditions: Homo sapiens, 96 h; HCC1599, breast cancer, four days; read-out: EC50
MCF7 = test: CellTiter-Glo Viability Assay, breast cancer; assay type: cell-based; conditions: Homo sapiens, 96 h; MCF7, breast cancer, four days; read-out: EC50
MDA-MB-231-Luc = test: CellTiter-Glo Viability Assay, breast cancer; assay type: cell-based; conditions: Homo sapiens, 96 h; MDA-MB-231-Luc, breast cancer, four days; read-out: EC50
T47D = test: CellTiter-Glo Viability Assay, breast cancer; assay type: cell-based; conditions: Homo sapiens, 96 h, breast cancer, four days, read-out: EC50
ZR-75-1 = test: CellTiter-Glo Viability Assay, breast cancer; assay type: cell-based; conditions: Homo sapiens, 96 h; ZR-75-1, breast cancer, four days; read-out: EC50
all 50 cell lines = test: CellTiter-Glo Viability Assay, average across all cell lines; assay type: cell-based; conditions: Homo sapiens; across all 50 cell lines; read-out: average EC50 for inhibition of cancer cell proliferation
Method in brief: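 Cells were plated at 300-3,000 per well in their own media, then treated with compound in duplicate, with DMSO wells as controls. After four days at 37° C and 5% CO2, CellTiter-Glo was added, and luminescence was read. EC50s were fitted.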

[1] = test system: colorectal cancer (6 cell lines); test: CellTiter-Glo Viability Assay, colorectal cancer; assay type: cell-based; conditions: Homo sapiens, inhibition of cancer cell proliferation
[2] = test system: liver cancer (3 cell lines); test: CellTiter-Glo Viability Assay, liver cancer; assay type: cell-based; conditions: Homo sapiens, inhibition of cancer cell proliferation
[3] = test system: lung cancer (4 cell lines); test: CellTiter-Glo Viability Assay, lung cancer; assay type: cell-based; conditions: Homo sapiens, inhibition of cancer cell proliferation
[4] = test system: ovarian cancer (4 cell lines); test: CellTiter-Glo Viability Assay, ovarian cancer; assay type: cell-based; conditions: Homo sapiens, inhibition of cancer cell proliferation
[5] = test system: pancreatic cancer (8 cell lines); test: CellTiter-Glo Viability Assay, pancreatic cancer; assay type: cell-based; conditions: Homo sapiens, inhibition of cancer cell proliferation
[6] = test system: prostate cancer (5 cell lines); test: CellTiter-Glo Viability Assay, prostate cancer; assay type: cell-based; conditions: Homo sapiens
CLK3 = CLK3 (Homo sapiens, UniProt P49761); test: CLK3 kinase activity assay (Z-lyte, Ser/Thr 18 peptide)
[7] = test system: haematopoietic & lymphoid tumors (13 cell lines); test: CellTiter-Glo Viability Assay, haematopoietic & lymphoid tumors; assay type: cell-based; conditions: Homo sapiens, inhibition of cancer cell proliferation
[8] = HCT-116, HCT116 cell line, read-out: Colorectal cancer, EC50 (μM) HCT116
[9] = HT-29, HT29 cell line, read-out: Colorectal cancer, EC50 (μM) HT29
[10] = SW-620, SW620 cell line, read-out: Colorectal cancer, EC50 (μM) SW620
[11] = DLD-1 cell line, read-out: Colorectal cancer, EC50 (μM) DLD-1
[12] = SW48 cell line, read-out: Colorectal cancer, EC50 (μM) SW48
[13] = SW480 cell line, read-out: Colorectal cancer, EC50 (μM) SW480
[14] = SNU-398, SNU398 cell line, read-out: Liver cancer, EC50 SNU398
[15] = HEPG2 cell line, read-out: Liver cancer, EC50 HEPG2
[16] = PLC/PRF/5 cell line, read-out: Liver cancer, EC50 PLC/PRF/5
[17] = A-427, A427 cell line, read-out: Lung cancer, EC50 (μM) A427
[18] = HCC78, HCC-78 cell line, read-out: Lung cancer, EC50 (μM) HCC-78
[19] = NCI-H460 cell line, read-out: Lung cancer, EC50 (μM) NCI-H460
[20] = NCI-H522 cell line, read-out: Lung cancer, EC50 (μM) NCI-H522
[21] = BXPC-3, BxPC3 cell line, read-out: Pancreatic cancer, EC50 BxPC3
[22] = CAPAN-1, Capan1 cell line, read-out: Pancreatic cancer, EC50 Capan1
[23] = Capan-2, Capan2 cell line, read-out: Pancreatic cancer, EC50 Capan2
[24] = MIA PaCa-2 cell line, read-out: Pancreatic cancer, EC50 MIA PaCa-2
[25] = PANC 05.04 cell line, read-out: Pancreatic cancer, EC50 PANC 05.04
[26] = PANC-1 cell line, read-out: Pancreatic cancer, EC50 PANC-1
[27] = UPAFII cell line, read-out: Pancreatic cancer, EC50 UPAFII
[28] = DU-145, read-out: Prostate cancer EC50 Du-145
[29] = PC-3, PC3 cell line, inhibition of cancer cell proliferation, read-out: Prostate cancer EC50 PC3
[30] = 22Rv1 cell line, inhibition of cancer cell proliferation, read-out: Prostate cancer EC50 22Rv1
[31] = LNCap clone FGC cell line, inhibition of cancer cell proliferation, read-out: Prostate cancer EC50 LNCap clone FGC
[32] = VCaP (Sigma) cell line, inhibition of cancer cell proliferation, read-out: Prostate cancer EC50 VCaP (Sigma)

Sequence of CLK3 (P49761 whole entry): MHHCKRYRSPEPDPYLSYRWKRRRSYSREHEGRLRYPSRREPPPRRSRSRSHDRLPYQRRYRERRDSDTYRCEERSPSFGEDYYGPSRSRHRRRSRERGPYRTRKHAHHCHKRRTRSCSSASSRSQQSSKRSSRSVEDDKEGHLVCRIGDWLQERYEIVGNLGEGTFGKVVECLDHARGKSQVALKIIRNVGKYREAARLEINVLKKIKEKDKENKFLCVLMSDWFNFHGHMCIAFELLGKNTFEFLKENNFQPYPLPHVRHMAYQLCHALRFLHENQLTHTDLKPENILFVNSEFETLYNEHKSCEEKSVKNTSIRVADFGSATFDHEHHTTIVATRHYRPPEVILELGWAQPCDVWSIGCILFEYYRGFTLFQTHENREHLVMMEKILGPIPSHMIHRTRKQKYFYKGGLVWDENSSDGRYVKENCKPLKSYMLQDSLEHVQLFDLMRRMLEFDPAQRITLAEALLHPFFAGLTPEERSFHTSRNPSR
T1 sequence (P49760 whole entry): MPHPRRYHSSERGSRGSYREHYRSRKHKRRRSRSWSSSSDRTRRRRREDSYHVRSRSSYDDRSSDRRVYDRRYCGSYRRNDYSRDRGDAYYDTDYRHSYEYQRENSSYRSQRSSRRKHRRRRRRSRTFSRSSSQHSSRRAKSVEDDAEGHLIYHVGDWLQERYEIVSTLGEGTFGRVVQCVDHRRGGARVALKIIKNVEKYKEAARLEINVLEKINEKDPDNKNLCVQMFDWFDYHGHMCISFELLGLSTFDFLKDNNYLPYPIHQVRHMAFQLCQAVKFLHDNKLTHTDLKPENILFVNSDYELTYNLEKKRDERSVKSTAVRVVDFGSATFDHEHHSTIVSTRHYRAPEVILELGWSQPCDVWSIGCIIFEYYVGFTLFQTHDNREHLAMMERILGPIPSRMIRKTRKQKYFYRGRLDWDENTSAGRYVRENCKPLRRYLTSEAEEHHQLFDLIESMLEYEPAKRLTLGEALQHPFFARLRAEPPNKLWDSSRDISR

CN(C)CCOc1cc(C(=O)Nc2cc3cc(-c4cnn(C)c4)ccc3cn2)ccn1 [Compound 73]
EC50 (CLK2): 1.9 nM | EC50 (BT-549): 272 nM | EC50 (CAMA1): 379 nM | EC50 (DU4475): 163 nM | EC50 (HCC1599): 73 nM | EC50 (MCF7): 914 nM | EC50 (MDA-MB-231-Luc): 374 nM | EC50 (T47D): 534 nM | EC50 (ZR-75-1): 467 nM | EC50 (all 50 cell lines): 306 nM | EC50 [1, 8]: 0.155 µM | EC50 [1, 9]: 0.385 µM | EC50 [1, 10]: 0.13 µM | EC50 [1, 11]: 0.241 µM | EC50 [1, 12]: 0.105 µM | EC50 [1, 13]: 0.16 µM | EC50 [2, 14]: 88 nM | EC50 [2, 15]: 383 nM | EC50 [2, 16]: 674 nM | EC50 [3, 17]: 0.29 µM | EC50 [3, 18]: 0.504 µM | EC50 [3, 19]: 0.396 µM | EC50 [3, 20]: 0.144 µM | EC50 ([4]; PA-1, PA1 cell line, read-out: Ovarian cancer, EC50 (μM) PA1): 0.325 µM | EC50 ([4]; TOV112D, TOV-112D cell line, read-out: Ovarian cancer, EC50 (μM) TOV-112D): 0.165 µM | EC50 ([4]; OV-90 cell line, read-out: Ovarian cancer, EC50 (μM) OV-90): 0.486 µM | EC50 ([4]; OVCAR-3 cell line, read-out: Ovarian cancer, EC50 (μM) OVCAR-3): 0.123 µM | EC50 [5, 21]: 451 nM | EC50 [5, 22]: 249 nM | EC50 [5, 23]: 555 nM | EC50 [5, 24]: 141 nM | EC50 [5, 25]: 232 nM | EC50 [5, 26]: 401 nM | EC50 [5, 27]: 203 nM | EC50 [6, 28]: 308 nM | EC50 [6, 29]: 302 nM | EC50 [6, 30]: 194 nM | EC50 [6, 31]: 526 nM | EC50 [6, 32]: 430 nM | EC50 (CLK3): 31.2 nM

Cn1ncc(-c2ccc3cnc(NC(=O)c4cccc(CN5CCCC5)c4)cc3c2)c1CN1CCCCC1 [Compound 78]
EC50 (CLK2): 1.6 nM | EC50 (BT-549): 655 nM | EC50 (CAMA1): 561 nM | EC50 (DU4475): 381 nM | EC50 (HCC1599): 512 nM | EC50 (MCF7): 1420 nM | EC50 (MDA-MB-231-Luc): 677 nM | EC50 (T47D): 888 nM | EC50 (ZR-75-1): 711 nM | EC50 (all 50 cell lines): 610 nM | EC50 [1, 8]: 0.38 µM | EC50 [1, 9]: 0.674 µM | EC50 [1, 10]: 0.198 µM | EC50 [1, 11]: 0.499 µM | EC50 [1, 12]: 0.182 µM | EC50 [1, 13]: 0.404 µM | EC50 ([7]; DND41, DND-41 cell line, read-out: Haematopoietic & Lymphoid tumors, EC50 (μM) DND-41): 0.513 µM | EC50 ([7]; MV4-11, MV-4-11 cell line, read-out: Haematopoietic & Lymphoid tumors, EC50 (μM) MV-4-11): 0.099 µM | EC50 ([7]; Rec1, REC-1 cell line, read-out: Haematopoietic & Lymphoid tumors, EC50 (μM) REC-1): 0.164 µM | EC50 ([7]; SU-DHL-4, SUDHL4 cell line, read-out: Haematopoietic & Lymphoid tumors, EC50 (μM) SUDHL4): 0.62 µM | EC50 ([7]; HL-60 cell line, read-out: Haematopoietic & Lymphoid tumors, EC50 (μM) HL-60): 1.29 µM | EC50 ([7]; JM1 cell line, read-out: Haematopoietic & Lymphoid tumors, EC50 (μM) JM1): 0.177 µM | EC50 ([7]; JURKAT, Clone E6-1 cell line, read-out: Haematopoietic & Lymphoid tumors, EC50 (μM) JURKAT, Clone E6-1): 0.976 µM | EC50 ([7]; JeKo-1 cell line, read-out: Haematopoietic & Lymphoid tumors, EC50 (μM) JeKo-1): 0.228 µM | EC50 ([7]; KASUMI-1 cell line, read-out: Haematopoietic & Lymphoid tumors, EC50 (μM) KASUMI-1): 0.363 µM | EC50 ([7]; Loucy cell line, read-out: Haematopoietic & Lymphoid tumors, EC50 (μM) Loucy): 0.522 µM | EC50 ([7]; MOLT-4 cell line, read-out: Haematopoietic & Lymphoid tumors, EC50 (μM) MOLT-4): 0.562 µM | EC50 ([7]; TF-1 cell line, read-out: Haematopoietic & Lymphoid tumors, EC50 (μM) TF-1): 0.897 µM | EC50 ([7]; TOLEDO cell line, read-out: Haematopoietic & Lymphoid tumors, EC50 (μM) TOLEDO): 0.156 µM | EC50 [2, 14]: 132 nM | EC50 [2, 15]: 845 nM | EC50 [2, 16]: 1290 nM | EC50 [3, 17]: 0.672 µM | EC50 [3, 18]: 1.1 µM | EC50 [3, 19]: 0.856 µM | EC50 [3, 20]: 0.395 µM | EC50 [5, 21]: 1110 nM | EC50 [5, 22]: 627 nM | EC50 [5, 23]: 1040 nM | EC50 [5, 24]: 272 nM | EC50 [5, 25]: 818 nM | EC50 [5, 26]: 736 nM | EC50 [5, 27]: 381 nM | EC50 [6, 28]: 713 nM | EC50 [6, 29]: 674 nM | EC50 [6, 30]: 525 nM | EC50 [6, 31]: 966 nM | EC50 [6, 32]: 546 nM | EC50 (CLK3): 14.6 nM
